In US5912372A, “Water-miscible esters of monoglycerides having antimicrobial activity” (priority 1997, dated 1999):

Test system: human respiratory syncytial virus (RSV)
Experiment: RSV inhibition assay in LLC-MK2 cells, PBS as diluent
Format: cell-based
Conditions: compound alone
Procedure: Additional studies were performed to determine the synergistic anti-viral effects of diacetyltartaric acids esters of monoglycerides, lipophilic monoglycerides (MG) and carrageenan. These studies were carried out using […] and PBS as the diluent. The RSV inhibition assay semi-quantitativelydetermines the ability of a test material (antibody or other bioactive compound) to inhibit the infection of monkey kidney cells (LLC-MK2) by human respiratory syncytial virus (RSV). Infected cells are identified using an immunoperoxidase method and counted. The method is performed in a microtiter format and is described briefly below:
LLC-MK2 rhesus monkey kidney cells were obtained from the American Type Culture Collection and were cultured in Eagles modified essential medium (EMEM) supplemented with 10% fetal bovine serum. For RSV inhibition assays, LLC-MK2 cells at 5,000 cells/well were seeded into fibronectin treated microtiter plates and incubated for 3-4 days prior to use in the infectivity reduction assay. […] Plates were then rinsed as above with PBS/CEA, and the number of stained RSV-infected cells (IC) per well determined using an inverted microscope. The number of ICs' in triplicate wells was compared with the number of ICs' of virus control wells (mean of 9) and the percent inhibition (PI) calculated; [PI=1.0-[Mean ICs' per well of test sample/Mean ICs' per well of virus control]. […]

Substance: Carrageenan
- Enhancement Factor: 1.0
